From ChEMBL document CHEMBL1125475, “Preferred antagonist binding state of the NMDA receptor: synthesis, pharmacology, and computer modeling of (phosphonomethyl)phenylalanine derivatives” (1992) come the findings set out here.

Holding throughout (type): functional
For assay [1], the species on record is Mus musculus. Nature of the assay: Antagonistic activity of 100 uM of compound against electrophysiological responses induced by NMDA (10 uM) in culture mouse cortical neurons.
The species entered for assay [2] is Mus musculus. The experiment in a line: Tested for antagonistic activity against electrophysiological responses induced by NMDA (10 uM) in culture mouse cortical neurons at 10 uM.
The species entered for assay [3] is Mus musculus. The experiment in a line: Tested for antagonistic activity against electrophysiological responses induced by NMDA (10 uM) in culture mouse cortical neurons at 100 uM.
The species entered for assay [4] is Mus musculus. The experiment in a line: Antagonistic activity of 10 uM of compound against electrophysiological responses induced by NMDA (10 uM) in culture mouse cortical neurons.

With `NC(Cc1ccc(CP(=O)(O)O)cc1)C(=O)O` (centres undefined), in the assay filed under Mus musculus [1], the Inhibition was found to be 0%.

Take `NC(CCCP(=O)(O)O)C(=O)O` (centres undefined): the Inhibition in the assay filed under Mus musculus [2] is given as 68%; in the assay filed under Mus musculus [3] it was 100%.

Consider `NC(Cc1ccccc1CP(=O)(O)O)C(=O)O` (centres undefined), for which the Inhibition is recorded as 87% in the assay listed under Mus musculus [1] and 40% in the assay listed under Mus musculus [4]. In the assay filed under Mus musculus [3], `NC(Cc1cccc(CC(=O)NO)c1)C(=O)O` (centres undefined) had an Inhibition of 12%. As for `NC(CC1CCCCC1CS(=O)(=O)[O-])C(=O)O.[Na+]` (centres undefined), the Inhibition in the assay listed under Mus musculus [1] turned out to be 50%. With `NC(Cc1cccc(CP(=O)(O)O)c1)C(=O)O` (centres undefined), the Inhibition is reported as 100% in the assay listed under Mus musculus [1] and 80% in the assay filed under Mus musculus [4].

As to `NC(CC1CCCC(CS(=O)(=O)[O-])C1)C(=O)O.[Na+]` (centres undefined), in the assay filed under Mus musculus [1], the Inhibition stood at 50%. As to `NC(CC1CCCC(CP(=O)(O)O)C1)C(=O)O` (centres undefined), the results for the Inhibition in the assay filed under Mus musculus [1] and in the assay filed under Mus musculus [4] were 90% and 34%, respectively. `NC(CC1CCC(CP(=O)(O)O)CC1)C(=O)O` (centres undefined) yielded an Inhibition in the assay filed under Mus musculus [1] of 18%. Same read-out and setting: the figure for `NC(CC1CCC(CS(=O)(=O)[O-])CC1)C(=O)O.[Na+]` (centres undefined) is 20%; for `NC(Cc1ccc(CS(=O)(=O)[O-])cc1)C(=O)O.[Na+]` (centres undefined) it is 0%; for `NC(CC1CCCCC1CP(=O)(O)O)C(=O)O` (centres undefined) it is 75%. The molecule `NC(Cc1ccccc1CS(=O)(=O)[O-])C(=O)O.[Na+]` (centres undefined) registered an Inhibition in the assay filed under Mus musculus [1] of 22%. In the assay listed under Mus musculus [1], `NC(Cc1cccc(CS(=O)(=O)[O-])c1)C(=O)O.[Na+]` (centres undefined) showed an Inhibition of 0%.

As to `NC(Cc1cccc(CC(=O)O)c1)C(=O)O` (centres undefined), the Inhibition in the assay listed under Mus musculus [1] came out at 31%.

For orientation: Inhibition means the share of the control response that was lost under treatment. High values mean a response far below the control, low ones a response near the control.
